LD99 and IC99 data for 47 molecules are collected here from US7759349B2, “Control of parasites in animals by the use of imidazo[1,2-b]pyridazine derivatives” (Schering-Plough Animal Health Corporation, priority 2003, dated 2010).

This test has as its system Haemonchus contortus. Put plainly: Haemonchus contortus larvacidal assay: NemaTOX H. contortus dose response (larval development, eggs to L3). Format: cell-based. The following applies: concentration required to inhibit development in 99% of the nematode larvae, eggs on agar to L3 stage (6 days), two-fold dilutions, 0.024 to 50 μg/ml; for IC99: Haemonchus contortus, 144 h, Table 3, read-out: LD99. As for the experimental part:
Haemonchus Contortus Larvacidal Assay: NemaTOX H.contortus Dose Response (00/0510)
Effect on larval development is determined in the assay described by Gill et al. (International Journal of Parasitology, 1995, 25, 463-470). Briefly, in this assay nematode eggs were applied to the surface of an agar matrix containing the test compound and then allowed to develop through to the L3, infective stage (6 days)
The wells for each dilution of every compound (from highest to lowest concentration) were inspected to determine the well number corresponding to the lowest concentration at which development was inhibited in 99% of the nematode larvae present. As the well numbers correspond to a two-fold serial dilution of each compound, a titre (dilution factor) is generated as 2^n-1, where n is the well number. By dividing the highest concentration tested by the titre an LD99 value can be obtained, representing the concentration required to inhibit development in 99% of the nematode larvae present.
The compounds supplied as solid and viscous liquids were dissolved in DMSO. Twelve serial 1/2 dilutions in DMSO solution were prepared from the stock solution, each of which was then diluted 1/5 with water. Aliquots (10 μl) of each dilution were transferred to the bioassay plates to give a final concentration range of 0.024 to 50 μg/ml.
In Tables 1, 2 and 3 the Haemonchus contortus LD99 values for compounds in accordance with the present invention are listed, measured in micrograms/mL.

For the setting “Table 1”, `CCOc1ccc(-c2cn3nc(OCC)ccc3n2)cc1` [Compound 60] yielded an LD99 of 0.172 micrograms/mL.

For the setting “Table 1”, `CCCOc1ccc2nc(-c3ccc4c(c3)OCCO4)cn2n1` [Compound 61] came in with an LD99 of 0.813 micrograms/mL.

Molecule `CCCOc1nn2cc(-c3ccc(OCC)cc3)nc2c2ccccc12` [Compound 62] gave an LD99 (Table 1) of 0.625 micrograms/mL.

Molecule `COCCOc1ccc(-c2cn3nc(OCCOC)ccc3n2)cc1` [Compound 64] showed an LD99 (Table 2) of 6 micrograms/mL.

With `CCCOc1ccc2nc(-c3ccc(OCCOC)c(OC)c3)cn2n1` [Compound 66], the LD99 (Table 2) is 0.81 micrograms/mL.

In turn, `COCCOc1ccc(-c2cn3nc(N4CCCCC4)ccc3n2)cc1` [Compound 67] returned an LD99 (Table 2) of 1.5 micrograms/mL.

Take `CCCSc1ccc2nc(-c3ccc(OCCOC)c(OC)c3)cn2n1` [Compound 68]: the LD99 (Table 2) is 0.44 micrograms/mL.

`COCCOc1ccc(-c2cn3ncccc3n2)cc1` [Compound 69]: where the note is “Table 2”, the LD99 was 15 micrograms/mL.

Consider `COCCOc1ccc(-c2cn3nc(N4CCCC4)ccc3n2)cc1` [Compound 70], for which, where the note is “Table 2”, the LD99 is on record as 3.25 micrograms/mL.

`CCCNc1ccc2nc(-c3ccc(OCCOC)cc3)cn2n1` [Compound 71] displayed an LD99 (Table 2) of 0.688 micrograms/mL.

For the molecule `COCCOc1ccc(-c2cn3nc(OC4CCCC4)ccc3n2)cc1` [Compound 73], where the note is “Table 2”, the LD99 was 1.875 micrograms/mL.

Molecule `OCCOc1ccc(-c2cn3nc(OC4CCCC4)ccc3n2)cc1` [Compound 74] returned an LD99 (Table 2) of 7 micrograms/mL.

Take `CCCOc1ccc2nc(-c3ccc(OCCOC)cc3)c(Br)n2n1` [Compound 81]: for the setting “Table 2”, the LD99 was 0.0137 micrograms/mL.

As for `CCCOc1ccc2nc(-c3ccc(OCCOC)c(Br)c3)c(C)n2n1` [Compound 83], the LD99 (Table 2) amounted to 0.375 micrograms/mL.

The molecule `CCCOc1ccc2nc(-c3ccc(OCCOC)cc3)c(C)n2n1` [Compound 84] gave an LD99 (Table 2) of 0.109 micrograms/mL.

For `COCCOc1ccc(-c2nc3ccc(-c4ccccc4)nn3c2C)cc1` [Compound 85], the LD99 (Table 2) amounted to 1.88 micrograms/mL.

As to `COCCOc1ccc(-c2nc3ccc(Cl)nn3c2C)cc1Br` [Compound 86], the LD99 (Table 2) is 3 micrograms/mL.

For the setting “Table 2”, `COCCOc1ccc(-c2nc3ccc(Cl)nn3c2C)cc1` [Compound 87] came in with an LD99 of 0.156 micrograms/mL.

Consider `CCCSc1ccc2nc(-c3ccc(OCCOC)c(OC)c3)c(Br)n2n1` [Compound 89], for which the LD99 (Table 2) is recorded as 0.75 micrograms/mL.

As to `COCCOc1ccc(-c2cn3nc(Br)ccc3n2)cc1` [Compound 90], the LD99 (Table 2) came to 3 micrograms/mL.

In turn, `COCCOc1ccc(-c2cn3nc(OCc4ccccc4)ccc3n2)cc1` [Compound 92] showed an LD99 (Table 2) of 0.438 micrograms/mL.

In turn, `COCCOc1cccc(-c2nc3ccc(Br)nn3c2C)c1` [Compound 93] gave an LD99 (Table 2) of 11 micrograms/mL.

Molecule `CCCOc1ccc2nc(-c3cccc(OCCOC)c3)c(C)n2n1` [Compound 94] came in with an LD99 (Table 2) of 1.88 micrograms/mL.

`COCCOc1cccc(-c2nc3ccc(OCC4CC4)nn3c2C)c1` [Compound 95] had an LD99 (Table 2) of 0.875 micrograms/mL.

`CCCCSc1ccc2nc(-c3ccc(OCCOC)cc3)cn2n1` [Compound 99] came in with an LD99 (Table 2) of 0.0938 micrograms/mL.

On to `CCOc1ccc2nc(-c3ccc(OCCOC)cc3)cn2n1` [Compound 100], for which the LD99 (Table 2) came to 0.406 micrograms/mL.

Molecule `CCSc1ccc2nc(-c3ccc(OCCOC)cc3)cn2n1` [Compound 101] had an LD99 (Table 2) of 0.3123 micrograms/mL.

Turning to `COCCOc1cccc(-c2nc3ccc(SCC(C)C)nn3c2C)c1` [Compound 102], the LD99 (Table 2) was found to be 12 micrograms/mL.

`COCCOc1cccc(-c2nc3ccc(SC(C)C)nn3c2C)c1` [Compound 103] showed an LD99 (Table 2) of 7 micrograms/mL.

The molecule `COCCOc1cccc(-c2nc3ccc(OC(C)C)nn3c2C)c1` [Compound 104] gave an LD99 (Table 2) of 5 micrograms/mL.

`COCCOc1ccc(-c2cn3nc(SCC(C)C)ccc3n2)cc1OC` [Compound 105] registered an LD99 (Table 2) of 0.406 micrograms/mL.

For `CCCCOc1ccc2nc(-c3ccc(OCCOC)c(OC)c3)cn2n1` [Compound 106], the LD99 (Table 2) stood at 0.313 micrograms/mL.

Consider `COCCOc1ccc(-c2cn3nc(OC(C)C)ccc3n2)cc1OC` [Compound 107], for which the LD99 (Table 2) is given as 7 micrograms/mL.

For `COCCOc1ccc(-c2cn3nc(SCC(C)C)ccc3n2)cc1` [Compound 108], where the note is “Table 2”, the LD99 is 0.313 micrograms/mL.

Molecule `COCCOc1ccc(-c2cn3nc(SC(C)C)ccc3n2)cc1` [Compound 109] gave an LD99 (Table 2) of 0.203 micrograms/mL.

Where the note is “Table 2”, `CCCCOc1ccc2nc(-c3ccc(OCCOC)cc3)cn2n1` [Compound 111] returned an LD99 of 0.219 micrograms/mL.

`COCCOc1ccc(-c2cn3nc(OC(C)C)ccc3n2)cc1` [Compound 112]: the LD99 (Table 2) stood at 1.63 micrograms/mL.

In the case of `CCCOc1ccc2nc(-c3ccc(OCCOC)c(OC)c3)c(I)n2n1` [Compound 113], the LD99 (Table 2) amounted to 5 micrograms/mL.

On to `COCCOc1ccc(-c2nc3ccc(SCC(C)C)nn3c2CN(C)C)cc1` [Compound 114], for which, under “Table 2”, the LD99 amounted to 3.25 micrograms/mL.

As for `CCCCSc1ccc2nc(-c3ccc(OCCOCC)cc3)cn2n1` [Compound 115], the LD99 (Table 2) worked out at 0.219 micrograms/mL.

`CCCOc1ccc2nc(-c3ccc(OCCOCC)cc3)cn2n1` [Compound 116] gave an LD99 (Table 2) of 0.109 micrograms/mL.

Molecule `CCOCCOc1ccc(-c2cn3nc(OCC4CC4)ccc3n2)cc1` [Compound 117] showed an LD99 (Table 2) of 0.0391 micrograms/mL.

Take `CCOc1ccc2nc(-c3ccc(OCCOC)c(OC)c3)cn2n1` [Compound 118]: the LD99 (Table 2) was 1.25 micrograms/mL.

Under “Table 2”, `CCCOc1nn2cc(-c3ccc(OCCOC)cc3)nc2c2ccccc12` [Compound 119] yielded an LD99 of 0.344 micrograms/mL.

In the case of `CCCOc1nn2cc(-c3ccc(OCCO)cc3)nc2c2ccccc12` [Compound 120], the LD99 (Table 2) came to 1.38 micrograms/mL.

As to `CCCOc1ccc2nc3c(n2n1)CCc1cc(OC)ccc1-3` [Compound 121, 3-Methoxy-8-propoxy-5,6-dihydro-6b,7,11-triaza-benzo[a]fluorene], the IC99 was found to be 0.203 µg/mL.

As to `CCCOc1ccc2nc3c(n2n1)Cc1ccccc1-3` [Compound 123, 3-Propoxy-5H-4,4a, 10-triaza-indeno[2,1-a]indene], the IC99 was found to be 0.469 µg/mL.
